Measurements published in ChEMBL document CHEMBL1131781, “Design and synthesis of diaminopyrrolidinone inhibitors of human osteoclast cathepsin K” (Bioorg Med Chem Lett, 1999).

Target: T1, Cathepsin K (Homo sapiens, UniProt P43235)
T1 sequence (P43235 whole entry): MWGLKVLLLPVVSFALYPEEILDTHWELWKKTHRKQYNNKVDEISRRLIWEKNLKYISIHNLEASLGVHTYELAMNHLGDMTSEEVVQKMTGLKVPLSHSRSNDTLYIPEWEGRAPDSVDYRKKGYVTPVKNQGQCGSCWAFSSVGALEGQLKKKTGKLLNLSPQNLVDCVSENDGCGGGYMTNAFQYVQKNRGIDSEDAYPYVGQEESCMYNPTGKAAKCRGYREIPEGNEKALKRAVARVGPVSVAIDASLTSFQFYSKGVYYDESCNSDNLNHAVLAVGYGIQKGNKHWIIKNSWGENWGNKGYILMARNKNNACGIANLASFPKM
Experiment: Compound was tested for its inhibitory activity against human osteoclast cathepsin K

Ki [nM] | Compound
10 | CC(C)C[C@H](NC(=O)OCc1ccccc1)C(=O)NNC(=O)c1csc([C@H](CC(C)C)NC(=O)OCc2ccccc2)n1
330 | CC(C)C[C@H](NC(=O)OCc1ccccc1)c1nc(C(=O)NN2CC[C@@H](NC(=O)OCc3ccccc3)C2=O)cs1
33 | CC(C)C[C@H](NC(=O)OCc1ccccc1)c1nc(C(=O)NN2CC[C@@](CC(C)C)(NC(=O)OCc3ccccc3)C2=O)cs1
